Tested on: CD1 female mouse brain lipidome
Experiment: Brain-region lipid levels (HPLC/MS/MS lipidomics) 2 h after single i.p. 3 mg/kg CP 55,940 vs vehicle
Type: in vivo
Parameters: N-arachidonoyl phenylalanine level, Mean / N-stearoyl tryptophan level, Mean / N-stearoyl proline level, Mean / N-stearoyl leucine level, Mean / N-stearoyl phenylalanine level, Mean / N-stearoyl serine level, Mean / N-stearoyl methionine level, Mean: unit: moles per gram
Settings: striatum
Procedure: The Bloomington Institutional Animal Care and Use Committee of Indiana University reviewed and approved the animal procedures. Female mice from the CD1 strain were utilized to match our study examining THC’s effects on the brain lipidome ([Leishman et al., 2018]). Mice were given a single i.p. injection of either 3 mg/kg CP or 1:1:18 cremophor:ethanol:saline vehicle (please refer to the section “3 mg/kg CP Is Relevant for Synthetic Cannabinoid Abuse and Has Stronger Effects on the Female Mouse Brain Lipidome During Adolescence” for a justification of dose and use of female mice). Three different age groups were given injections: PND 35 and PND 50 adolescents, and adult mice (PND 113). At least eight mice in each age group received CP and at least eight received vehicle. Matching the THC study time course ([Leishman et al., 2018]), mice were sacrificed via rapid decapitation 2 h after injection. Brains were immediately removed and flash-frozen in liquid nitrogen, and then stored at -80°C until dissections were performed. Brains were dissected on an ice-cold dissection plate into the following regions: STR, HIPP, CER, THAL, CTX, HYP, MID, and STEM. These abbreviations for these brain areas will be used exclusively when discussing the results generated by these specific dissections. Each dissected area was immediately placed in liquid nitrogen and then stored at -80°C until used for lipid extraction.
Tissue extracts were performed as previously described ([Bradshaw et al., 2006]; [Stuart et al., 2013]; [Raboune et al., 2014]; [Leishman et al., 2016a],[b], [2017], [2018]). First, samples were shock frozen in liquid nitrogen, weighed, and transferred to a centrifuge tube. The mass of the largest sample was multiplied by 50 to determine how many milliliters of HPLC-grade methanol (Fisher, Fair Lawn, NJ, United States) to add. Then, samples were spiked with 500 pmol deuterium-labeled NAGly (d8NAGly; Cayman Chemical, Ann Arbor, MI, United States). Samples were placed on ice in darkness for 2 h then individually homogenized and centrifuged at 19,000 × g for 20 min at 20°C. Supernatants were diluted with HPLC water (purified in house) to make a solution of 75% water, 25% supernatant. Lipids were partially purified on C18 solid phase extraction columns (Agilent, Palo Alto, CA, United States). A series of four elutions with 1.5 mL of 60%, 75%, 85%, and 100% methanol were collected ([Stuart et al., 2013]; [Leishman et al., 2016a],[b], [2018]).
As previously described ([Bradshaw et al., 2006]; [Tan et al., 2006]; [Smoum et al., 2010]; [Stuart et al., 2013]; [Tortoriello et al., 2013]; [Raboune et al., 2014]; [Leishman et al., 2016a],[b], [2017], [2018]), samples were analyzed using an Applied Biosystems API 3000 triple quadrupole mass spectrometer with electrospray ionization (Foster City, CA, United States). Using an Agilent XDB-C18 reversed phase analytical column and optimized mobile phase gradients, 20 μL from each elution were chromatographed. Two Shimadzu 10ADvp pumps (Columbia, MD, United States) provided the pressure for gradient elution. Mobile phase A: 20% methanol, 80% water (v/v) and 1 mM ammonium acetate (Sigma, St. Louis, MO, United States). Mobile phase B: 100% methanol, 1 mM ammonium acetate. Every method run began with 0% mobile phase B, reached 100% mobile phase B flowing at 0.2 mL/min, and gradually returned to 0% mobile phase B.
This screening library will be referred to as the lipidome when discussing data from this study. HPLC/MS/MS data were analyzed using Analyst software (Applied Biosystems) ([Bradshaw et al., 2006]; [Tan et al., 2006]; [Stuart et al., 2013]; [Tortoriello et al., 2013]; [Raboune et al., 2014]; [Leishman et al., 2016a],[b], [2017], [2018]). Chromatograms (Supplementary Figure 3) were generated by determining the retention time of analytes from the analytical column with a [M-1] or [M+1] parent peak and a fragmentation peak corresponding to the programmed values. […]

[1] = PND 50 female mice, 3mg/kg CP 55,940, mean

Structure (SMILES): CCCCCCC(C)(C)c1ccc([C@@H]2C[C@H](O)CC[C@H]2CCCO)c(O)c1 [CP 55,940]
- N-palmitoyl valine level [1]: 1.79E-13
- N-stearoyl GABA level [1]: 3.86E-12
- N-stearoyl alanine level [1]: 6.45E-13
- N-stearoyl ethanolamine level [1]: 2.79E-11
- N-stearoyl glycine level [1]: 4.91E-13
- N-stearoyl leucine level [1]: 1.1E-12
- N-stearoyl methionine level [1]: 8.01E-13
- N-stearoyl phenylalanine level [1]: 1.27E-12
- N-stearoyl proline level [1]: BDL
- N-stearoyl serine level [1]: 5.13E-11
- N-stearoyl tryptophan level [1]: BDL
- N-stearoyl tyrosine level [1]: 9.9E-14
- Oleic acid level [1]: 2.17E-10
- PGE2 level [1]: 7.65E-11
- PGF2α level [1]: 9.33E-11
- THC level [1]: BDL
- 2-arachidonoyl-sn-glycerol level, Mean (adult, 3 mg/kg CP 55,940): 1.6E-09
- 2-linoleoyl-sn-glycerol level, Mean (adult, 3 mg/kg CP 55,940): 1.72E-10
- 2-oleoyl-sn-glycerol level, Mean (adult, 3 mg/kg CP 55,940): 1.58E-09
- 2-palmitoyl-sn-glycerol level, Mean (adult, 3 mg/kg CP 55,940): 1.51E-10
- 6-ketoPGF1α level, Mean (adult, 3 mg/kg CP 55,940): PISSR
- 11-OH-THC level, Mean (adult, 3 mg/kg CP 55,940): BDL
- 11-nor-9-carboxyTHC level, Mean (adult, 3 mg/kg CP 55,940): BDL
- Arachidonic acid level, Mean (adult, 3 mg/kg CP 55,940): 1.93E-09
- Cannabidiol level, Mean (adult, 3 mg/kg CP 55,940): BDL
- Linoleic acid level, Mean (adult, 3 mg/kg CP 55,940): 7.69E-10
- N- stearoyl valine level, Mean (adult, 3 mg/kg CP 55,940): PISSR
- N-arachidonoyl GABA level, Mean (adult, 3 mg/kg CP 55,940): 2.43E-11
- N-arachidonoyl alanine level, Mean (adult, 3 mg/kg CP 55,940): 2.03E-12
- N-arachidonoyl dopamine level, Mean (adult, 3 mg/kg CP 55,940): BDL
- N-arachidonoyl ethanolamine level, Mean (adult, 3 mg/kg CP 55,940): 2.19E-11
- N-arachidonoyl glycine level, Mean (adult, 3 mg/kg CP 55,940): 6.38E-13
- N-arachidonoyl methionine level, Mean (adult, 3 mg/kg CP 55,940): BDL
- N-arachidonoyl phenylalanine level, Mean (adult, 3 mg/kg CP 55,940): 9.64E-14
- N-arachidonoyl proline level, Mean (adult, 3 mg/kg CP 55,940): BDL
- N-arachidonoyl serine level, Mean (adult, 3 mg/kg CP 55,940): PISSR
- N-arachidonoyl taurine level, Mean (adult, 3 mg/kg CP 55,940): 9.74E-11
- N-arachidonoyl tryptophan level, Mean (adult, 3 mg/kg CP 55,940): BDL
- N-arachidonoyl tyrosine level, Mean (adult, 3 mg/kg CP 55,940): PISSR
- N-docosahexaenoyl GABA level, Mean (adult, 3 mg/kg CP 55,940): PISSR
- N-docosahexaenoyl alanine level, Mean (adult, 3 mg/kg CP 55,940): BDL
- N-docosahexaenoyl ethanolamine level, Mean (adult, 3 mg/kg CP 55,940): 2.36E-11
- N-docosahexaenoyl glycine level, Mean (adult, 3 mg/kg CP 55,940): PISSR
- N-docosahexaenoyl leucine level, Mean (adult, 3 mg/kg CP 55,940): PISSR
- N-docosahexaenoyl methionine level, Mean (adult, 3 mg/kg CP 55,940): BDL
- N-docosahexaenoyl phenylalanine level, Mean (adult, 3 mg/kg CP 55,940): PISSR
- N-docosahexaenoyl proline level, Mean (adult, 3 mg/kg CP 55,940): BDL
- N-docosahexaenoyl serine level, Mean (adult, 3 mg/kg CP 55,940): PISSR
- N-docosahexaenoyl tryptophan level, Mean (adult, 3 mg/kg CP 55,940): BDL
- N-docosahexaenoyl tyrosine level, Mean (adult, 3 mg/kg CP 55,940): PISSR
- N-docosahexaenoyl valine level, Mean (adult, 3 mg/kg CP 55,940): BDL
- N-linoleoyl GABA level, Mean (adult, 3 mg/kg CP 55,940): PISSR
- N-linoleoyl alanine level, Mean (adult, 3 mg/kg CP 55,940): PISSR
- N-linoleoyl ethanolamine level, Mean (adult, 3 mg/kg CP 55,940): 3.83E-11
- N-linoleoyl glycine level, Mean (adult, 3 mg/kg CP 55,940): PISSR
- N-linoleoyl leucine level, Mean (adult, 3 mg/kg CP 55,940): PISSR
- N-linoleoyl methionine level, Mean (adult, 3 mg/kg CP 55,940): BDL
- N-linoleoyl phenylalanine level, Mean (adult, 3 mg/kg CP 55,940): PISSR
- N-linoleoyl proline level, Mean (adult, 3 mg/kg CP 55,940): BDL
- N-linoleoyl serine level, Mean (adult, 3 mg/kg CP 55,940): 1.09E-10
- N-linoleoyl tryptophan level, Mean (adult, 3 mg/kg CP 55,940): BDL
- N-linoleoyl tyrosine level, Mean (adult, 3 mg/kg CP 55,940): BDL
- N-linoleoyl valine level, Mean (adult, 3 mg/kg CP 55,940): PISSR
- N-nervonoyl valine level, Mean (adult, 3 mg/kg CP 55,940): BDL
- N-oleoyl GABA level, Mean (adult, 3 mg/kg CP 55,940): 1.7E-11
- N-oleoyl alanine level, Mean (adult, 3 mg/kg CP 55,940): 3.96E-12
- N-oleoyl dopamine level, Mean (adult, 3 mg/kg CP 55,940): BDL
- N-oleoyl ethanolamine level, Mean (adult, 3 mg/kg CP 55,940): 1.57E-10
- N-oleoyl glycine level, Mean (adult, 3 mg/kg CP 55,940): 5.26E-13
- N-oleoyl leucine level, Mean (adult, 3 mg/kg CP 55,940): 1.99E-12
- N-oleoyl methionine level, Mean (adult, 3 mg/kg CP 55,940): PISSR
- N-oleoyl phenylalanine level, Mean (adult, 3 mg/kg CP 55,940): 4.84E-13
- N-oleoyl proline level, Mean (adult, 3 mg/kg CP 55,940): BDL
- N-oleoyl serine level, Mean (adult, 3 mg/kg CP 55,940): 5.05E-10
- N-oleoyl tryptophan level, Mean (adult, 3 mg/kg CP 55,940): BDL
- N-oleoyl tyrosine level, Mean (adult, 3 mg/kg CP 55,940): PISSR
- N-oleoyl valine level, Mean (adult, 3 mg/kg CP 55,940): PISSR
- N-palmitoyl GABA level, Mean (adult, 3 mg/kg CP 55,940): 2.94E-11
- N-palmitoyl alanine level, Mean (adult, 3 mg/kg CP 55,940): 3.83E-12
- N-palmitoyl ethanolamine level, Mean (adult, 3 mg/kg CP 55,940): 7.87E-11
- N-palmitoyl glycine level, Mean (adult, 3 mg/kg CP 55,940): 2.5E-12
- N-palmitoyl leucine level, Mean (adult, 3 mg/kg CP 55,940): 3E-12
- N-palmitoyl methionine level, Mean (adult, 3 mg/kg CP 55,940): PISSR
- N-palmitoyl phenylalanine level, Mean (adult, 3 mg/kg CP 55,940): 3.31E-13
- N-palmitoyl proline level, Mean (adult, 3 mg/kg CP 55,940): PISSR
- N-palmitoyl serine level, Mean (adult, 3 mg/kg CP 55,940): 4.99E-11
- N-palmitoyl tryptophan level, Mean (adult, 3 mg/kg CP 55,940): BDL
- N-palmitoyl tyrosine level, Mean (adult, 3 mg/kg CP 55,940): 2.47E-12
- N-palmitoyl valine level, Mean (adult, 3 mg/kg CP 55,940): PISSR
- N-stearoyl GABA level, Mean (adult, 3 mg/kg CP 55,940): 2.26E-11
- N-stearoyl alanine level, Mean (adult, 3 mg/kg CP 55,940): 4.15E-12
- N-stearoyl ethanolamine level, Mean (adult, 3 mg/kg CP 55,940): 3.49E-11
- N-stearoyl glycine level, Mean (adult, 3 mg/kg CP 55,940): 3.37E-12
- N-stearoyl leucine level, Mean (adult, 3 mg/kg CP 55,940): 3.52E-12
- N-stearoyl phenylalanine level, Mean (adult, 3 mg/kg CP 55,940): 4.25E-13
- N-stearoyl proline level, Mean (adult, 3 mg/kg CP 55,940): BDL
- N-stearoyl serine level, Mean (adult, 3 mg/kg CP 55,940): PISSR
- N-stearoyl tryptophan level, Mean (adult, 3 mg/kg CP 55,940): BDL
- Oleic acid level, Mean (adult, 3 mg/kg CP 55,940): 1.22E-09
- PGE2 level, Mean (adult, 3 mg/kg CP 55,940): 2.64E-10
- PhosphoLEA level, Mean (adult, 3 mg/kg CP 55,940): 2.11E-11
- THC level, Mean (adult, 3 mg/kg CP 55,940): BDL

From paper PMC6277767, “Broad and Region-Specific Impacts of the Synthetic Cannabinoid CP 55,940 in Adolescent and Adult Female Mouse Brains” (Frontiers in Molecular Neuroscience, 2018)
